Measured values as given in US20200277251A1, “NOVEL ANTIBACTERIAL COMPOUNDS AND METHODS OF MAKING AND USING SAME” (BROWN UNIVERSITY, priority 2017, published 2020).
In brackets after ≈: the same amount, converted by molar mass.

Legend:
[1] = test system: Bacillus subtilis; assay: Resazurin microtiter MIC assay, activity against Bacillus subtilis; format: cell-based
Method: Bacillus subtilis ATCC 11775 was plated on agar from a 20% glycerol stock solution stored at −80° C. Inoculated plates were then incubated at 37° C. under aerobic conditions for 16 hours. Single cultures were transferred to Nutrient Broth (NB) and cultured for 16 hours under the same conditions. […] Second passage cultures were standardized to O.D.−600 nm=1.0. The resazurin microtiter assay procedure described by Palomino and coworkers is used for assessing antimicrobial activity (Palomino, 2002, Antimicrob. Agents Chemother. 46:2720-2722). The assay is performed in LB broth. Resazurin sodium salt powder is prepared in distilled water and filter sterilized at […] (w/v) for MIC assays and at 0.01%8.55). (w/v) for single concentration assays. Compounds are first screened in MIC assays to assess whether growth inhibition is dependent on inhibitor concentration. The plates are incubated for 30 min under aerobic conditions. Growth controls containing no inhibitory compound, sterility controls without inoculation, and controls containing a known antibiotic, chloramphenicol, are also included. The innoculum was prepared from second passage cultures in Nutrient Broth (NB) and standardized to O.D.−600 nm=1.0 and the wells inoculated with a 1:20 dilution. Serial two-fold dilutions of each compound in 100 μL of medium are prepared directly in 96 well plates at concentrations ranging from 250 μM to 7 μM. After incubation 30 μL of resazurin solution is added to each well and incubated for 30 min. A change in color from blue to pink indicates reduction of resazurin, and therefore bacterial growth. Minimum inhibitory concentration (MIC) was determined as the lowest drug concentration that prevented the color change from blue to pink. Inhibition was quantified by observation of color change. Further studies were carried out at a single inhibitor concentration of 250 μM. The plates were incubated for 4 h under aerobic conditions with the same controls. After incubation 30 μL of resazurin solution was added to each well and incubated for 60 min. Inhibition was quantified by fluorescence readings from plate reader SAFIRE, Firmware: V 2.20 08/02 Safire. Excitation wavelength set to 560 nm, emission wavelength set to 590 nm. Well containing dye and non-inoculated cells was used as gain set. Plates are held at 37° C. and fluorescence measurements are taken at 0, 5, 10, 20, 30, and 60 min after addition of dye. Lower fluorescence values correlate to greater degrees of inhibition. Compounds are tested […] for their capacity to inhibit B. subtilis growth. […] Briefly, second-passage bacteria are incubated with inhibitor in a 96-well plate for four hours, then resazurin dye is added and color/fluorescence change is observed. […] Resorufin is also fluorescent and can be measured by a plate-reader.

[2] = test system: Streptococcus pneumoniae; assay: Resazurin microtiter MIC assay, activity against Streptococcus pneumoniae; format: cell-based
Method: The resazurin microtiter assay procedure described by Palomino and coworkers is used for assessing antimicrobial activity (Palomino, 2002, Antimicrob. Agents Chemother. 46:2720-2722). The assay is performed in LB broth. Resazurin sodium salt powder is prepared in distilled water and filter sterilized at […] (w/v) for MIC assays and at 0.01%8.55). (w/v) for single concentration assays. Compounds are first screened in MIC assays to assess whether growth inhibition is dependent on inhibitor concentration. The plates are incubated for 30 min under aerobic conditions. Growth controls containing no inhibitory compound, sterility controls without inoculation, and controls containing a known antibiotic, chloramphenicol, are also included. The innoculum was prepared from second passage cultures in Nutrient Broth (NB) and standardized to O.D.−600 nm=1.0 and the wells inoculated with a 1:20 dilution. Serial two-fold dilutions of each compound in 100 μL of medium are prepared directly in 96 well plates at concentrations ranging from 250 μM to 7 μM. After incubation 30 μL of resazurin solution is added to each well and incubated for 30 min. A change in color from blue to pink indicates reduction of resazurin, and therefore bacterial growth. Minimum inhibitory concentration (MIC) was determined as the lowest drug concentration that prevented the color change from blue to pink. Inhibition was quantified by observation of color change. Further studies were carried out at a single inhibitor concentration of 250 μM. The plates were incubated for 4 h under aerobic conditions with the same controls. After incubation 30 μL of resazurin solution was added to each well and incubated for 60 min. Inhibition was quantified by fluorescence readings from plate reader SAFIRE, Firmware: V 2.20 08/02 Safire. Excitation wavelength set to 560 nm, emission wavelength set to 590 nm. Well containing dye and non-inoculated cells was used as gain set. Plates are held at 37° C. and fluorescence measurements are taken at 0, 5, 10, 20, 30, and 60 min after addition of dye. Lower fluorescence values correlate to greater degrees of inhibition.

[3] = test system: E. coli; conditions: cited from earlier work

SMILES	MIC [1]	MIC ([2]; 60 uM)	MIC ([2]; same MIC in mass units)	effect on the viability of E. coli [3]
O=C(NC1CCCCC1)C(C1CCCCC1)N(C(=O)c1ccccc1C(F)(F)F)C1CCCCC1 (stereo not drawn) [vgkc]	50 µM (≈ 24.6 µg/mL)	5 µM	2.46 µg/mL	
CCCCNC(=O)C(C1CCCCC1)N(C(=O)c1ccccc1OC)C1CCCCC1 (stereo not drawn) [qgka]	50 µM (≈ 21.4 µg/mL)			
CCCCNC(=O)C(C1CCCCC1)N(C(=O)c1ccccc1SC)c1ccccc1 (stereo not drawn) [sgqa]		50 µM	21.2 µg/mL	
CCCCNC(=O)C(C1CCCCC1)N(C(=O)c1ccccc1C(F)(F)F)C1CCCCC1 (stereo not drawn) [vgka]	50 µM (≈ 23.3 µg/mL)			
CC1=N[C@@H]2[C@@H](O)[C@H](O)[C@@H](CO)O[C@@H]2S1 [NAG-thiazoline]				no effect
C#CCN(C(=O)c1ccccc1C(F)(F)F)C(C(=O)NCCCC)C1CCCCC1 (stereo not drawn) [vgba]		50 µM	21.1 µg/mL	

Further lines, with some results ahead:

MIC [1]	MIC ([2]; 60 uM)	MIC ([2]; same MIC in mass units)	SMILES	effect on the viability of E. coli [3]
50 µM (≈ 20.6 µg/mL)			CCCCNC(=O)C(C1CCCCC1)N(C(=O)c1ccccc1C)C1CCCCC1 (stereo not drawn) [wgka]	
	50 µM	20.3 µg/mL	CCCCNC(=O)C(C1CCCCC1)N(C(=O)c1ccccc1C)c1ccccc1 (stereo not drawn) [wgqa]	
	5 µM	2.33 µg/mL	CCCCNC(=O)C(C1CCCCC1)N(C(=O)c1ccccc1OC(C)=O)C1CCCCC1 (stereo not drawn) [ygka]	
